Earlier results, collected in patent US20060057232A1, “Method of altering age perception” (priority 2004, published 2006).

Test system: sensitivity of observers to light
Conditions: (26)

SMILES: c1ccncc1 [pyridine]
- effect on sensitivity of observers to light: increase sensitivity of observers to light
